We go through one compound from patent US5662929A, “Therapeutic liposomal formulation” (Universite de Montreal, priority 1994, dated 1997).

Data set [1] in a line: Pulmonary retention / tobramycin levels after intratracheal administration in non-infected mice. As to conditions: 200 ug intratracheal, HPLC. In kind it is in vivo, BALB/c mice. The procedure:
Using differential scan calorimetry, the temperatures of phase transition (Tc) were calculated for the tobramycin-liposomal formulations listed in Table 1. All these formulations were then tested in vitro to assess the antibiotic kinetics of liberation from the liposomes. […] These liposomal formulations were further tested in animal model of chronic pulmonary infection to examine their antibacterial efficacy.
Lungs and kidneys were removed aseptically, weighed, and then homogenized in cold sterile PBS (40% [wt/vol]) for 30 s with a Polytron homogenizer. Tobramycin levels in both homogenized tissues and sera were measured by HPLC. Groups of three mice were used for each time value.

The subject of data set [2] is Pseudomonas aeruginosa PA 508 (mucoid phenotype). Kind of data set: Bactericidal effect in chronic pulmonary infection, rat (Table 3 experiment). In kind it is in vivo, P. aeruginosa in Sprague-Dawley rats. The method, then: Different liposomal formulations were prepared according to Example 1 and analyzed by differential scan colorimetry. Using differential scan calorimetry, the temperatures of phase transition (Tc) were calculated for the tobramycin-liposomal formulations listed in Table 1. All these formulations were then tested in vitro to assess the antibiotic kinetics of liberation from the liposomes. In addition, these formulations were tested in a non-infected mouse model as previously described (Omri et al. 1994, Antimicrob. Agents Chemother. 38:1090-1095) to assess the persistence of the liposomes in the lung. Only the DPPC/DMPG 10:1, 15:1 and DSPC. […] These liposomal formulations were further tested in animal model of chronic pulmonary infection to examine their antibacterial efficacy. […] Of note, the addition of cholesterol to the formulation described in Table 1 brought the Tc to a minimum value of 60° C. Such formulations were incompatible with modulation of gradual antibiotic liberation and suitable interactions with bacteria. Thus, in order to maintain the desired characteristic of the liposome formulation, a low rigidity of the liposomes seems required. This low rigidity can be achieved by maintaining a low temperature of phase transition (below the body temperature of the animal to which the formulation is to be administered) and avoiding the use of cholesterol in the formulation.
(§1) To evaluate the bactericidal efficacy of a liposomal aminoglycoside formulation produced according to the present invention, male, pathogen-free, Sprague-Dawley rats weighing 175 to 225 g (Charles River) were used. Chronic infection in lungs was established by intratracheal administration of 5×10^5 CFU of Pseudomonas aeruginosa PA 508 (mucoid phenotype) prepared in agar beads. It is to be pointed out that this rat model for chronic pulmonary infection is widely recognized as the most appropriate animal model for chronic pulmonary infections in human CF patients. After 3 days, three doses (600 ug) of free or liposome-encapsulated tobramycin were given intratracheally at intervals of 16 h. The lipid mixture were DPPC:DMPG at a molar ratio of 10:1 (formula no 1) and DPPC:DMPC at a molar ratio of 15:1 (formula no 2). Sixteen hours after the last treatment, the animals were sacrificed and the entire lungs were removed aseptically, weighed and homogenized as described previously for mice. Serial 10-fold dilutions of the homogenates in cold PBS were made and spread in triplicate on proteose peptone agar plates. Identification of P. aeruginosa was confirmed by specific cultures. CFU were counted after 24-h incubations at 37° C. under 5% CO^2. Counts were expressed in log CFU per pair of lungs. PBS and PBS-liposomes were used as controls.

A further data set concerns P. aeruginosa. As to the kind of experiment: Bactericidal effect in infected rat lung tissues, second experiment (Table 4). Particulars: two doses of 240 ug. In kind it is in vivo, P. aeruginosa in Sprague-Dawley rats.
Text: as §1, with “After 3 days, three doses (600 ug) of free or liposome-encapsulated tobramycin were given intratracheally at intervals of 16 h.” left out, “controls. […]” for “controls.”

For the compound `NC[C@H]1O[C@H](O[C@H]2[C@H](O)[C@@H](O[C@H]3O[C@H](CO)[C@@H](O)[C@H](N)[C@H]3O)[C@H](N)C[C@@H]2N)[C@H](N)C[C@@H]1O` [free tobramycin, tobramycin], the Conc in lungs was 43 ug/pair of lungs in data set [1] (0.25 h) and 11 ug/pair of lungs in data set [1] (1 h). The Conc in kidneys in data set [1] (1 h) is 25 ug/pair of kidneys. Moreover, in data set [2] (free antibiotic, see below), the bacteria enumerated is 10^7 c.f.u. Further, the “antibacterial efficacy in chronic pulmonary infection model (in words)” value in data set [2] (rat, compared with free antibiotic) was “no or little bactericidal activity”. For the same compound, the “log cfu/pair of lungs” value is reported as 7.10 log cfu/pair of lungs in data set [2] (three doses (600 ug) intratracheally at 16 h intervals, 16 h after last treatment) and 6.03 log cfu/pair of lungs in the data set on P. aeruginosa. Further, the cfu/pair of lungs in data set [2] (three doses (600 ug) intratracheally at 16 h intervals, 16 h after last treatment, cfu counts < 30 not statistically significant) is listed as 1.25 × 10^7 cfu/pair of lungs; in the data set on P. aeruginosa, 1.07 × 10^6 cfu/pair of lungs.
